Data published in patent US11945822B2, “Pyrazolo-triazine and/or pyrazolo-pxrimidine derivatives as selective inhibitor of cyclin dependent kinase” (QURIENT CO., LTD., priority 2018, dated 2024).

These compounds were tested against T1, CDK1/Cyclin B (Homo sapiens, UniProt P06493) (assay: Enzymatic assay for CDK1 (FRET based LANCE Ultra kinase assay)). Conditions: read-out: CDK1 enzymatic activity (IC50 range).
T1 construct: purchased Invitrogen PR4768C
Assay type: biochemical
How it was run: (§1)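 LANCE Ultra TR-FRET: ULight-MBP peptide (68 nM) with ATP at Km, […], 60 min at 23° C. EDTA plus Eu-anti-phospho-MBP added, another 60 min, then 665/615 nm emission read. Compounds tested as 8-dose 4-fold DMSO dilutions.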

T1 sequence (P06493 whole entry): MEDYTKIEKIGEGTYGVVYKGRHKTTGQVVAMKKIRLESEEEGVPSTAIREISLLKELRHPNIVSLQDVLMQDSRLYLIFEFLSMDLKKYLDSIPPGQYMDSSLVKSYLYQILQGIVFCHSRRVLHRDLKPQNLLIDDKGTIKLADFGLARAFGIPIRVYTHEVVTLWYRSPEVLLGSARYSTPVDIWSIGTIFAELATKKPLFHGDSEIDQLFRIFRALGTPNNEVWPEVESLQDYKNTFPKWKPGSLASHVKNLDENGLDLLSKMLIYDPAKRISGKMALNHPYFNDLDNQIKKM
T1 sequence (P14635 whole entry partner): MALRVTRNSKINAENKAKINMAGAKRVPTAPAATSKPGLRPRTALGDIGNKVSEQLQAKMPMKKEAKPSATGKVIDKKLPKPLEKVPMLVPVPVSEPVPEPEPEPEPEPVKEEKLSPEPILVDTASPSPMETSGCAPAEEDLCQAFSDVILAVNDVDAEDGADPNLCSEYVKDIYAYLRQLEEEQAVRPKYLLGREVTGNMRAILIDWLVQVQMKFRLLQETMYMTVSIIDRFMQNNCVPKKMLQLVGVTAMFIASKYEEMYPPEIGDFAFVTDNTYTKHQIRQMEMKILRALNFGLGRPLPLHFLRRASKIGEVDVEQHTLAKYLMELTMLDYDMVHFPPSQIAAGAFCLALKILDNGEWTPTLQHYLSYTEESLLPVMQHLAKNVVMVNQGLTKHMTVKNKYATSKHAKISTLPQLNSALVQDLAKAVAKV

Row | IC50 | Compound
1 | 100 to 1000 nM | CC(C)c1cnn2c(NCc3ccccc3-c3ccc4[nH]c(=O)[nH]c4c3)nc(N3CCC(N)CC3)nc12 [Compound 140]
2 | > 1000 nM | CC(C)c1cnn2c(NCc3ccccc3-c3ccc4c(c3)CC(=O)N4)nc(N3CCC(N)CC3)nc12 [Compound 17]
3 | 100 to 1000 nM | CC(C)c1cnn2c(NCc3ccccc3-c3ccc4c(c3)NC(=O)C(C)(C)O4)nc(N3CCC(N)CC3)nc12 [Compound 138]
4 | > 1000 nM | CC(C)c1cnn2c(NCc3ccccc3-n3cc4c(n3)CCC(=O)C4)nc(N3CCC(N)CC3)nc12 [Compound 132]

Each compound was assayed on RPMI-8226 (assay: Cellular RPMI-8226 viability assay (CellTiter-Glo, 72 hours)). Conditions: Homo sapiens.
Assay type: cell-based
Method: All cell lines were routinely tested for mycoplasma.
The effect of the CDK7 inhibitor to inhibit the growth of target cancer cells was evaluated through the 72 hours time period of viability assay. Briefly, the candidate cell line ware plated in 96 well plate at the following density of cells respectively. […] DMSO solvent without compound served as a control and final DMSO concentration less than 0.1%. After 72 hours of incubation at 37° C., 5% CO2 incubator, cells were analyzed for the viability using the CellTiter-Glo Luminescent Cell Viability Assay (Promega, Cat #G7570). All viability assays were performed in duplicate and Luminescence was read using an Envision (Perkin Elmer, USA). Data was analyzed using XLfit software.

Row | IC50 | Compound
5 | 1000 to 10000 nM | CC(C)c1cnn2c(NCc3ccccc3-c3ccc4[nH]c(=O)[nH]c4c3)nc(N3CCC(N)CC3)nc12 [Compound 140]
6 | 1000 to 10000 nM | CC(C)c1cnn2c(NCc3ccccc3-c3ccc4c(c3)CC(=O)N4)nc(N3CCC(N)CC3)nc12 [Compound 17]
7 | < 1000 nM | CC(C)c1cnn2c(NCc3ccccc3-c3ccc4c(c3)NC(=O)C(C)(C)O4)nc(N3CCC(N)CC3)nc12 [Compound 138]
8 | 1000 to 10000 nM | CC(C)c1cnn2c(NCc3ccccc3-n3cc4c(n3)CCC(=O)C4)nc(N3CCC(N)CC3)nc12 [Compound 132]

Each compound was assayed against T2, CDK5/p25 (Homo sapiens, UniProt Q00535) (assay: Enzymatic assay for CDK5 (FRET based LANCE Ultra kinase assay)). Conditions: read-out: CDK5 enzymatic activity (IC50 range).
T2 construct: purchased Invitrogen PR8543B
T2 sequence (Q00535 whole entry): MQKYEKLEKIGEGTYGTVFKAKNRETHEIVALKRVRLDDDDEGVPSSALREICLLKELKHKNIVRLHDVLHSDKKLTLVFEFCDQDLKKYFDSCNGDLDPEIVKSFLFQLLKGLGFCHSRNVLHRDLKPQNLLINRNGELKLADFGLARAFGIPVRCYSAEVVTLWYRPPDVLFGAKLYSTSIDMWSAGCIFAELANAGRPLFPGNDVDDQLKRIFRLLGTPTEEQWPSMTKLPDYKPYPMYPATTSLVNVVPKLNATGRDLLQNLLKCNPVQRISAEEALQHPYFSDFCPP
T2 sequence (Q15078 99-307 partner limits assumed): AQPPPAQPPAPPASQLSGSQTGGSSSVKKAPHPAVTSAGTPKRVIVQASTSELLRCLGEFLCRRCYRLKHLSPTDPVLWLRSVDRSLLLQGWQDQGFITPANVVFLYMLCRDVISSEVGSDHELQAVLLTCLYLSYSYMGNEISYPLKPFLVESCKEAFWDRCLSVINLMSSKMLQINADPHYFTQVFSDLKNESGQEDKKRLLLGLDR
Assay type: biochemical
How it was run: as §1

Row | IC50 | Compound
9 | < 100 nM | CC(C)c1cnn2c(NCc3ccccc3-c3ccc4[nH]c(=O)[nH]c4c3)nc(N3CCC(N)CC3)nc12 [Compound 140]
10 | 100 to 1000 nM | CC(C)c1cnn2c(NCc3ccccc3-c3ccc4c(c3)CC(=O)N4)nc(N3CCC(N)CC3)nc12 [Compound 17]
11 | < 100 nM | CC(C)c1cnn2c(NCc3ccccc3-c3ccc4c(c3)NC(=O)C(C)(C)O4)nc(N3CCC(N)CC3)nc12 [Compound 138]
12 | 100 to 1000 nM | CC(C)c1cnn2c(NCc3ccccc3-n3cc4c(n3)CCC(=O)C4)nc(N3CCC(N)CC3)nc12 [Compound 132]

The compounds below were run against T3, CDK2/Cyclin A (Homo sapiens, UniProt P24941) (assay: Enzymatic assay for CDK2 (FRET based LANCE Ultra kinase assay)). Conditions: read-out: CDK2 enzymatic activity (IC50 range).
T3 construct: purchased Invitrogen PV6290
Assay type: biochemical
How it was run: as §1

Row | IC50 | Compound
13 | 100 to 1000 nM | CC(C)c1cnn2c(NCc3ccccc3-c3ccc4[nH]c(=O)[nH]c4c3)nc(N3CCC(N)CC3)nc12 [Compound 140]
14 | 100 to 1000 nM | CC(C)c1cnn2c(NCc3ccccc3-c3ccc4c(c3)CC(=O)N4)nc(N3CCC(N)CC3)nc12 [Compound 17]
15 | 100 to 1000 nM | CC(C)c1cnn2c(NCc3ccccc3-c3ccc4c(c3)NC(=O)C(C)(C)O4)nc(N3CCC(N)CC3)nc12 [Compound 138]
16 | > 1000 nM | CC(C)c1cnn2c(NCc3ccccc3-n3cc4c(n3)CCC(=O)C4)nc(N3CCC(N)CC3)nc12 [Compound 132]

The compounds below were run against T4, CDK7/Cyclin H/MNAT1 (Homo sapiens, UniProt P50613) (assay: Enzymatic assay for CDK7 (FRET based LANCE Ultra kinase assay)). Conditions: CDK7 over CDK1.
T4 construct: purchased Invitrogen PR6749B
T4 sequence (P50613 whole entry): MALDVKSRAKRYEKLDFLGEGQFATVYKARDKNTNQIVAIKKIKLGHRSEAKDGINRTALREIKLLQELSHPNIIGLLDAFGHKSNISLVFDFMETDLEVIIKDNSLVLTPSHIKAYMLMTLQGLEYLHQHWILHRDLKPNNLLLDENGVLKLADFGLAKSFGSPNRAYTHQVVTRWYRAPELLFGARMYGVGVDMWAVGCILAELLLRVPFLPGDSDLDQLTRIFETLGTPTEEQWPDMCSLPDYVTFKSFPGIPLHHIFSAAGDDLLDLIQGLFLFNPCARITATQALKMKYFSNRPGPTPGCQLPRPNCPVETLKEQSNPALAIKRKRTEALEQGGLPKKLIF
T4 sequence (P51946 whole entry partner): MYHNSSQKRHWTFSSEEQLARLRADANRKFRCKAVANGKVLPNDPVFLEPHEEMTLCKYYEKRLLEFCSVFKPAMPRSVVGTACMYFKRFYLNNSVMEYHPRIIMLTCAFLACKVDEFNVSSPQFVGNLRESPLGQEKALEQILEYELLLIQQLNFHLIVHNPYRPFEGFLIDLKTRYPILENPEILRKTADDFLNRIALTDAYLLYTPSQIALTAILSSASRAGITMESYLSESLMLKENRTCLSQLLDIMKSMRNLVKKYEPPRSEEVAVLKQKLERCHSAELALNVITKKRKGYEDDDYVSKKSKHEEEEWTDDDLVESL
T4 sequence (P51948 whole entry partner): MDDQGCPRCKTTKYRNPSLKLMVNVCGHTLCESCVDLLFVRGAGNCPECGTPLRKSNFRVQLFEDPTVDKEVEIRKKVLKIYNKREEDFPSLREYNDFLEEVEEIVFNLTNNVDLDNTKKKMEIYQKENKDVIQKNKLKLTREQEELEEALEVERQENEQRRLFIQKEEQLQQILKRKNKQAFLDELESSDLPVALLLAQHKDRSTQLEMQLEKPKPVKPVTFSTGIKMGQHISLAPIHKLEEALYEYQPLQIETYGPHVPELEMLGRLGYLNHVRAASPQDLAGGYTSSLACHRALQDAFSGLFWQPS
Assay type: biochemical
How it was run: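 Inhibition was measured at Km ATP by time-resolved FRET between a Eu anti-phospho antibody and a phosphorylated ULight peptide. The enzyme was the purified CDK7/cyclin complex, and data were curve-fitted.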

Row | Compound | CDK1/CDK7: Selectivity of CDK7 inhibition over CDK1 inhibition
17 | CC(C)c1cnn2c(NCc3ccccc3-c3ccc4[nH]c(=O)[nH]c4c3)nc(N3CCC(N)CC3)nc12 [Compound 140] | B (B=less than 200 fold, but greater than 20 fold)
18 | CC(C)c1cnn2c(NCc3ccccc3-c3ccc4c(c3)CC(=O)N4)nc(N3CCC(N)CC3)nc12 [Compound 17] | B (B=less than 200 fold, but greater than 20 fold)
19 | CC(C)c1cnn2c(NCc3ccccc3-c3ccc4c(c3)NC(=O)C(C)(C)O4)nc(N3CCC(N)CC3)nc12 [Compound 138] | A (A=greater than 200 fold)
20 | CC(C)c1cnn2c(NCc3ccccc3-n3cc4c(n3)CCC(=O)C4)nc(N3CCC(N)CC3)nc12 [Compound 132] | A (A=greater than 200 fold)

Same assay, conditions: CDK7 over CDK2

Row | Compound | CDK2/CDK7: Selectivity of CDK7 inhibition over CDK2 inhibition
21 | CC(C)c1cnn2c(NCc3ccccc3-c3ccc4[nH]c(=O)[nH]c4c3)nc(N3CCC(N)CC3)nc12 [Compound 140] | B (B=less than 200 fold, but greater than 20 fold)
22 | CC(C)c1cnn2c(NCc3ccccc3-c3ccc4c(c3)CC(=O)N4)nc(N3CCC(N)CC3)nc12 [Compound 17] | B (B=less than 200 fold, but greater than 20 fold)
23 | CC(C)c1cnn2c(NCc3ccccc3-c3ccc4c(c3)NC(=O)C(C)(C)O4)nc(N3CCC(N)CC3)nc12 [Compound 138] | B (B=less than 200 fold, but greater than 20 fold)
24 | CC(C)c1cnn2c(NCc3ccccc3-n3cc4c(n3)CCC(=O)C4)nc(N3CCC(N)CC3)nc12 [Compound 132] | B (B=less than 200 fold, but greater than 20 fold)

Same assay, conditions: CDK7 over CDK5

Row | CDK5/CDK7: Selectivity of CDK7 inhibition over CDK5 inhibition | Compound
25 | C (C=less than 20 fold) | CC(C)c1cnn2c(NCc3ccccc3-c3ccc4[nH]c(=O)[nH]c4c3)nc(N3CCC(N)CC3)nc12 [Compound 140]
26 | C (C=less than 20 fold) | CC(C)c1cnn2c(NCc3ccccc3-c3ccc4c(c3)CC(=O)N4)nc(N3CCC(N)CC3)nc12 [Compound 17]
27 | C (C=less than 20 fold) | CC(C)c1cnn2c(NCc3ccccc3-c3ccc4c(c3)NC(=O)C(C)(C)O4)nc(N3CCC(N)CC3)nc12 [Compound 138]

Row | Compound | CDK5/CDK7: Selectivity of CDK7 inhibition over CDK5 inhibition
28 | CC(C)c1cnn2c(NCc3ccccc3-n3cc4c(n3)CCC(=O)C4)nc(N3CCC(N)CC3)nc12 [Compound 132] | B (B=less than 200 fold, but greater than 20 fold)

Same assay, conditions: read-out: CDK7 enzymatic activity (IC50 range)

Row | IC50 | Compound
29 | < 100 nM | CC(C)c1cnn2c(NCc3ccccc3-c3ccc4[nH]c(=O)[nH]c4c3)nc(N3CCC(N)CC3)nc12 [Compound 140]
30 | < 100 nM | CC(C)c1cnn2c(NCc3ccccc3-c3ccc4c(c3)CC(=O)N4)nc(N3CCC(N)CC3)nc12 [Compound 17]
31 | < 100 nM | CC(C)c1cnn2c(NCc3ccccc3-c3ccc4c(c3)NC(=O)C(C)(C)O4)nc(N3CCC(N)CC3)nc12 [Compound 138]
32 | < 100 nM | CC(C)c1cnn2c(NCc3ccccc3-n3cc4c(n3)CCC(=O)C4)nc(N3CCC(N)CC3)nc12 [Compound 132]

What follows are compounds tested on MV4-11 (assay: Cellular MV4-11 viability assay (CellTiter-Glo, 72 hours)). Conditions: Homo sapiens.
Assay type: cell-based
How it was run: (§2)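 CellTiter-Glo luminescence read in duplicate after 72 h compound exposure (37 °C, 5% CO2); DMSO-only control, final DMSO under 0.1%.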

Row | IC50 | Compound
33 | < 1000 nM | CC(C)c1cnn2c(NCc3ccccc3-c3ccc4[nH]c(=O)[nH]c4c3)nc(N3CCC(N)CC3)nc12 [Compound 140]

Each compound was assayed on H460 (assay: Cellular H460 viability assay (CellTiter-Glo, 72 hours)). Conditions: Homo sapiens, NCI-H460.
Assay type: cell-based
How it was run: as §2

Row | IC50 | Compound
34 | 1000 to 10000 nM | CC(C)c1cnn2c(NCc3ccccc3-c3ccc4[nH]c(=O)[nH]c4c3)nc(N3CCC(N)CC3)nc12 [Compound 140]
35 | 1000 to 10000 nM | CC(C)c1cnn2c(NCc3ccccc3-c3ccc4c(c3)CC(=O)N4)nc(N3CCC(N)CC3)nc12 [Compound 17]
36 | < 1000 nM | CC(C)c1cnn2c(NCc3ccccc3-c3ccc4c(c3)NC(=O)C(C)(C)O4)nc(N3CCC(N)CC3)nc12 [Compound 138]
37 | 1000 to 10000 nM | CC(C)c1cnn2c(NCc3ccccc3-n3cc4c(n3)CCC(=O)C4)nc(N3CCC(N)CC3)nc12 [Compound 132]
